Measurements reported in US20260199305A1, “LONG-ACTING ORAL PHARMACEUTICAL COMPRISING HYPOXIA-INDUCIBLE FACTOR PROLYL HYDROLASE INHIBITOR AND USE THEREOF” (Kind Pharmaceutical, priority 2023, published 2026).
Like-named read-outs stand apart in the source and are kept apart here.

Tests used:
[1] = test system: patients with chronic kidney disease anemia; assay: Phase 2 clinical trial in patients with chronic kidney disease anemia (hemoglobin, adverse events); assay type: in vivo, human; conditions: for mean rate of hemoglobin increase: end of dose-fixing period (5 weeks); for mean hemoglobin level: Weeks 6-14 (entire titration period); for cumulative percentage of patients achieving target hemoglobin range 10.0-11.0 g/dL and increase of ≥1.0 g/dL from baseline: entire 13-week treatment period; for TEAE, % of patients / TEAE, NE (total number of adverse events) / TEAE, n (number of patients experiencing adverse events) / Treatment-related TEAE, % of patients / Treatment-related TEAE, NE (total number of adverse events) / Treatment-related TEAE, n (number of patients experiencing adverse events): titration period
Description: A Phase 2, randomized, double-blind, placebo-controlled clinical study of Comp-1 in patients with chronic kidney disease anemia included a total treatment period of 13 weeks, divided into an initial 5-week dose-fixing period and a subsequent 8-week dose adjustment period (also referred to as the titration period). A total of 113 patients with renal anemia were initially randomized into the dose-fixing period. During the dose-fixing period, patients with renal anemia received Comp-1 8 mg, 12 mg, or 16 mg three times weekly (TIW), or a matching placebo. At the Week 6 study visit, a total of 44 eligible patients underwent a second randomization into the dose adjustment period (titration period). […] The starting dose in this phase was the same as the dose during the dose-fixing period and could be adjusted based on weekly hemoglobin values to maintain hemoglobin within the target range of 10.0-11.0 g/dL, inclusive. To maintain blinding, patients in the placebo group underwent pseudo-randomization and continued to receive matching placebo. During the study, patients were visited weekly to measure the primary efficacy indicator, i.e. hemoglobin level, and safety comparisons were made for patients entering the titration period according to dosing frequency (three times weekly (TIW) dosing vs. once weekly (QW) dosing).
The primary efficacy objective of the study was to compare the mean rate of hemoglobin increase (g/dL/week) at the end of the dose-fixing period (i.e., after 5 weeks of dosing) between the three Comp-1 dose groups and the placebo group. […] In the analysis of hemoglobin during the adjustment period (titration period), at Week 14 (i.e., at the end of the titration period or after 13 weeks of dosing), the mean levels of hemoglobin in the pooled Comp-1 TIW group and QW group were 10.74 g/dL and 10.09 g/dL, respectively, both maintained within the study target range of 10.0-11.0 g/dL inclusive, while the mean level of hemoglobin in the placebo group was 9.57 g/dL. During the later part of the adjustment period (titration period), i.e., Weeks 10-14, the mean levels of hemoglobin were >10.0 g/dL in all dose frequency groups including the placebo group: 10.73 g/dL and 10.77 g/dL in the pooled Comp-1 TIW and QW groups, respectively, and 10.26 g/dL in the placebo group. The change in hemoglobin level from baseline was 1.60 g/dL and 1.63 g/dL in the pooled Comp-1 TIW and QW groups, respectively, and 0.48 g/dL in the placebo group. […] In the analysis of hemoglobin throughout the entire adjustment period (titration period), i.e., Weeks 6-14, the mean hemoglobin levels in the pooled Comp-1 TIW and QW groups were 10.84 g/dL and 10.91 g/dL, respectively, compared to 10.23 g/dL in the placebo group. […] Throughout the entire 13-week treatment period, the cumulative percentage of patients achieving the target hemoglobin range of 10.0-11.0 g/dL inclusive and an increase of ≥1.0 g/dL from baseline was similar between the pooled Comp-1 TIW and QW groups: 100% and 90%, respectively, compared to 40% in the placebo group. Table 3 below provides a safety comparison for patients entering the titration period according to dosing frequency.
TEAE: treatment emergent adverse event; Treatment-related TEAE: treatment emergent adverse event considered related to treatment; N: number of patients; NE: total number of adverse events occurring; n: number of patients experiencing adverse events.

[2] = Phase 1 single-dose and multiple-dose pharmacokinetics in healthy volunteers; assay type: in vivo, Humans; conditions: for half-life / Tmax: human, oral; for Tmax: read-out: median Tmax
Description: In a Phase 1, randomized, double-blind, placebo-controlled, single-dose and multiple-dose clinical study, a total of 46 healthy volunteers were assigned to one of six dose groups (1 mg, 4 mg, 10 mg, 20 mg, 30 mg, 50 mg) in a single-dose phase. In each dose group, 2 volunteers received a matching placebo. In the 1 mg dose group, 4 volunteers received a single dose of Comp-1 and in the remaining dose groups, 6 volunteers each received a single dose of Comp-1. Blood samples were collected from volunteers within 1 hour before dosing and at 0.5, 1, 1.5, 2, 3, 4, 5, 6, 7, 8, 10, 12, 24, 48, and 72 hours after dosing for pharmacokinetic (PK) analysis.
A total of 32 healthy volunteers were assigned to one of four dose groups (4 mg, 10 mg, 20 mg, 30 mg) in a multiple-dose phase. In each dose group, 2 volunteers received a matching placebo and 6 volunteers received Comp-1 once daily for 10 consecutive days. Blood samples for PK analysis were collected from volunteers within 1 hour before dosing and at 0.5, 1, 1.5, 2, 3, 4, 5, 6, 7, 8, 10, 12, and 24 hours after dosing on the first dosing day (i.e., Day 1), as well as within 1 hour before dosing and at 0.5, 1, 2, 3, 4, 5, 6, 7, 8, 10, 12, 24, 48, and 72 hours after dosing on Days 6, 7, 8, and 10.

[3] = after 10 consecutive days of dosing
[4] = multiple-dose phase, after the first dose

O=C(O)CNC(=O)C1=C(O)C2(CCCC2)n2c(ccc2-c2ccccc2)C1=O [Comp-1, (6′-hydroxy-8′-oxo-3′-phenyl-8′H-spiro[cyclopentane-1,5′-indolizine]-7′-carbonyl)glycine]
mean rate of hemoglobin increase ([1]; 8 mg TIW): 0.2839 g/dL/week | mean rate of hemoglobin increase ([1]; 12 mg TIW): 0.3893 g/dL/week | mean rate of hemoglobin increase ([1]; 16 mg TIW): 0.4817 g/dL/week | mean level of hemoglobin ([1]; Week 14, pooled QW group): 10.09 g/dL | mean level of hemoglobin ([1]; Week 14, pooled TIW group): 10.74 g/dL | mean hemoglobin level ([1]; pooled QW group): 10.91 g/dL | mean hemoglobin level ([1]; pooled TIW group): 10.84 g/dL | change in hemoglobin from baseline ([1]; Weeks 6-14, pooled QW group): 1.78 g/dL | change in hemoglobin from baseline ([1]; Weeks 6-14, pooled TIW group): 1.71 g/dL | change in hemoglobin level from baseline ([1]; Weeks 10-14, pooled QW group): 1.63 g/dL | mean level of hemoglobin ([1]; Weeks 10-14, pooled QW group): 10.77 g/dL | change in hemoglobin level from baseline ([1]; Weeks 10-14, pooled TIW group): 1.60 g/dL | mean level of hemoglobin ([1]; Weeks 10-14, pooled TIW group): 10.73 g/dL | cumulative percentage of patients achieving target hemoglobin range 10.0-11.0 g/dL and increase of ≥1.0 g/dL from baseline ([1]; pooled QW group): 90% | cumulative percentage of patients achieving target hemoglobin range 10.0-11.0 g/dL and increase of ≥1.0 g/dL from baseline ([1]; pooled TIW group): 100% | TEAE, % of patients ([1]; Pooled QW, N = 20): 70.0% | TEAE, NE (total number of adverse events) ([1]; Pooled QW, N = 20): 18 | TEAE, n (number of patients experiencing adverse events) ([1]; Pooled QW, N = 20): 14 | Treatment-related TEAE, % of patients ([1]; Pooled QW, N = 20): 5.0% | Treatment-related TEAE, NE (total number of adverse events) ([1]; Pooled QW, N = 20): 1 | Treatment-related TEAE, n (number of patients experiencing adverse events) ([1]; Pooled QW, N = 20): 1 | TEAE, % of patients ([1]; Pooled TIW, N = 19): 73.7% | TEAE, NE (total number of adverse events) ([1]; Pooled TIW, N = 19): 39 | TEAE, n (number of patients experiencing adverse events) ([1]; Pooled TIW, N = 19): 14 | Treatment-related TEAE, % of patients ([1]; Pooled TIW, N = 19): 10.5% | Treatment-related TEAE, NE (total number of adverse events) ([1]; Pooled TIW, N = 19): 2 | Treatment-related TEAE, n (number of patients experiencing adverse events) ([1]; Pooled TIW, N = 19): 2 | exposure (Css,max, AUC0-t, AUC0-t, and AUC0-inf) [2, 3]: increased in a dose-proportional manner | mean clearance (CL/F) [2, 3]: no dose-related trend | half-life ([2]; blood, after 10 consecutive days of once daily dosing, 4-30 mg, read-out: mean elimination half-life): 12.4 to 15.8 h | Tmax ([2]; blood, after 10 consecutive days of once daily dosing, 4-30 mg): 3 to 4 h | half-life ([2]; blood, multiple-dose phase, first dose on Day 1, 4-30 mg, read-out: mean half-life): 10.1 to 19.4 h | Tmax ([2]; blood, multiple-dose phase, first dose on Day 1, 4-30 mg): 2 to 3 h | half-life ([2]; in vivo, single-dose phase, 1-50 mg, healthy volunteers, read-out: mean elimination half-life (t½)): 13.1 to 19.7 h | Tmax ([2]; in vivo, single-dose phase, 1-50 mg, healthy volunteers): 3 to 4.5 h | CLF [2, 4]: no apparent trend with dose | exposure (Cmax, AUC0-t, and AUC0-inf) [2, 4]: increased with dose | exposure (Cmax, AUC0-t, and AUC0-inf) ([2]; single-dose phase): increased in a dose-proportional manner | mean clearance (CL/F) ([2]; single-dose phase): no dose-related trend
